Data: patent US9120808B2 (NABRIVA THERAPEUTICS AG, priority 2009, dated 2015)
Read-outs that look alike come from different tables or passages of the source.

Legend:
[1] = tested on: C. freundii 7023771; assay: In-vitro synergy test, MIC by broth/agar dilution; format: cell-based
Experimental: (§1) Stock solutions of the test compounds and control antibiotics are prepared in distilled water according to the NCCLS guidelines (NCCLS (National Commitee for Clinical Laboratory Standards). 12(3). 2000. M7-A4). […] All drug weights are corrected for salt forms and refer to the pure drug substance.
(§2) All tested strains and clinical isolates are either purchased from the American Type Culture Collection (ATCC), kindly supplied by A. Georgopoulos (Vienna General Hospital, Vienna, Austria), and I. Chopra (Leeds, UK), collected from the SENTRY study (F. J. Schmitz, Minden, Germany) or from the Sandoz culture collection.
(§3) All strain identities are confirmed by BBL Crystal™ Identification Systems (Beckton Dickinson, Cockeysville, Md., USA). Stock cultures are prepared from broth cultures grown at 35° C. for 18-22 h without agitation and subsequent addition of 5% DMSO (v/v, final concentration) as cryoprotectant and stored frozen in liquid nitrogen.
(§4) Bacterial susceptibility, expressed as MIC, is determined by microbroth dilution technique and agar dilution technique as recommended by the approved standard reference recommendations of the NCCLS.
(§5) The inoculum is prepared by the direct colony suspension method as described by NCCLS. For this purpose the bacteria are grown on blood agar plates at 35° C. for 24 h. Subsequently 3-5 single colonies are suspended in 5 ml liquid medium. The bacteria are then incubated for 5 h to reach the logarithmic growth phase and subsequently diluted with medium or NaCl (0.86%) to reach a final living cell count equivalent to 10^8 CFU/ml. Then the bacterial suspension is diluted 1:10 and 1 μl (10^4 CFU; final inoculoum 10^5 CFU/ml) is transferred to the test medium containing the antibacterial substances by a multipoint inoculator (Dynatech, Chantilly, Va., USA). The plates are then incubated at 35° C. for 24 h. The MIC is determined optically and defined as the minimum inhibitory concentration [μg/ml] of antibiotic at which no visible bacterial growth occurs.

[2] = tested on: E. cloacae 83989; assay: In-vitro synergy test, MIC by broth/agar dilution; format: cell-based
Experimental: as §1, §2, §3, §4, §5

[3] = tested on: K. pneumoniae ATCC 700603; assay: In-vitro synergy test, MIC by broth/agar dilution; format: cell-based
Experimental: as §1, §2, §3, §4, §5

[4] = tested on: TEM-1 producing E. coli B269 (clinical isolate); format: in vivo; conditions: s.c.; 0.5 mg/kg cefepime (0 and 3 h) + 20 mg/kg Example 49 (0, 1.5, 3, 4.5 h after infection)
Experimental: A sepsis model in female NMRI mice was employed using TEM-1 producing E. coli B269 (clinical isolate) as the infecting bacterial strain. In general, the final inoculum given in 0.3 ml per mouse intraperitoneally represented a 100% lethal concentration for systemic infections within 48 hours.
The subcutaneous treatment schedule for the antibiotic at various doses was simultaneous and 3 hours after infection.

[5] = target: TEM-1 β-lactamase (Escherichia coli, UniProt P62593); assay: Cell-free β-lactamase inhibition study (nitrocefin hydrolysis); format: biochemical; conditions: 10 min pre-incubation at 37° C., nitrocefin substrate
Sequence of TEM-1 β-lactamase (P62593 whole entry, looked up): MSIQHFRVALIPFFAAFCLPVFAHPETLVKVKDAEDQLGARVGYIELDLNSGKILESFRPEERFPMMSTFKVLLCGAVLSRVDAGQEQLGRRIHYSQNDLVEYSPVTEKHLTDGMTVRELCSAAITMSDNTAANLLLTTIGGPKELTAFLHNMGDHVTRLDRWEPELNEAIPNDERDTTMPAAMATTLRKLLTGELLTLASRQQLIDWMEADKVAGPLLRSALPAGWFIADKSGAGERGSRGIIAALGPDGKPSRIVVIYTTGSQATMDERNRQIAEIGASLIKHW
Experimental: (§6) Cell-Free-β-Lactamase Inhibition Study
(§7) Assays are performed with β-lactamases expressed in the pET system (Novagen, San Diego, Calif.) without signal peptides. They contain an N-terminal hexa-Histidine tag that is used for purification on Ni-NTA (Qiagen, Hilden, Germany). The compounds are prepared as 50 mM stocks in DMSO and diluted into buffer P1 (50 mM phosphate, pH 7) to a final concentration of 10% DMSO. All further dilutions are done in P2 (P1 with 10% DMSO). Enzyme and compound dilutions are pre-incubated for 10 min at 37° C. and the reaction is started with the addition of pre-warmed (37° C.) nitrocefin at a final concentration of […]. […] The initial velocity is determined and IC50 values are calculated using non-linear regression and sigmoidal dose response analysis with the PRISM 4.0 software (Graphpad Software Inc., San Diego, Calif.).

[6] = Pharmacokinetics in mice; format: in vivo; conditions: for AUC / Cmax: mouse, plasma
Experimental: The values of the PK parameters were calculated by standard noncompartmental analysis, using Kinetica 4.2 (InnaPhase). Plasma concentration values below the limit of quantification were taken as 0. The maximum plasma concentration (Cmax) and the time to reach Cmax were determined from observed data.

[7] = target: SHV-1 β-lactamase (Klebsiella pneumoniae, UniProt P0AD64); assay: Cell-free β-lactamase inhibition study (nitrocefin hydrolysis); format: biochemical; conditions: 10 min pre-incubation at 37° C., nitrocefin substrate
Sequence of SHV-1 β-lactamase (P0AD64 whole entry, looked up): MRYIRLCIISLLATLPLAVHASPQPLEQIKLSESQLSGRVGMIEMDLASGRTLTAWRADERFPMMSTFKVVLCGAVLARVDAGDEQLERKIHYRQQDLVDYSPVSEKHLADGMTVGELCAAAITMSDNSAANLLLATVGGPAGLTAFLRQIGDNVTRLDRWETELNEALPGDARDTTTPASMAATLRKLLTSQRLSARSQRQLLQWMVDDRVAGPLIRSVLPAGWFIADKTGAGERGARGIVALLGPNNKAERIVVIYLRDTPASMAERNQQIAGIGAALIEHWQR
Experimental: as §6, §7

[8] = MIC of cefepime with 17 μM Example 49
[9] = MIC of ceftazidime with 68 μM Example 49

Structure (SMILES) | IC50 [5] [nM] | IC50 ([7]; SHV-1, read-out: IC50) [nM] | other results
CC1CC(=C2O[C@@H]3CC(=O)N3C2C(=O)O)C(=O)O1 (single isomer, unassigned) [Example 49] | 1.8 | – | Cefepime MIC, +17 μM Example 49 [1, 8]: 0.4 µg/mL; Ceftazidime MIC, +68 μM Example 49 [1, 9]: 3.2 µg/mL; Cefepime MIC, +17 μM Example 49 [2, 8]: 0.8 µg/mL; Ceftazidime MIC, +68 μM Example 49 [2, 9]: 12.8 µg/mL; Amoxicillin MIC, +68 μM Example 49 ([3]; MIC of amoxicillin with 68 μM Example 49): 3.2 µg/mL; Cefepime MIC, +17 μM Example 49 [3, 8]: 0.2 µg/mL; Ceftazidime MIC, +68 μM Example 49 [3, 9]: 0.2 µg/mL; survival, combination of cefepime and Example 49 [4]: survival of all animals; AUC ([6]; oral 25 mg/kg): 1090 ng·h/mL; Cmax ([6]; oral 25 mg/kg (cremophor EL/ethanol/glucose in saline), read-out: peak plasma concentration (Cmax)): 2220 ng/mL; AUC ([6]; sc, subcutaneous 10 mg/kg): 2090 ng·h/mL; Cmax ([6]; sc, subcutaneous 10 mg/kg (0.05 M NaPO4 buffer, pH 7.2), read-out: Cmax): 5600 ng/mL; Thalf ([6]; oral 25 mg/kg): 18.90 min; time to reach Cmax ([6]; oral 25 mg/kg): 15 min; Thalf ([6]; subcutaneous 10 mg/kg): 12.27 min; time to reach Cmax ([6]; subcutaneous 10 mg/kg): 5 min
CC1(C)S[C@@H]2[C@H](NC(=O)[C@H](N)c3ccc(O)cc3)C(=O)N2[C@H]1C(=O)O [Amoxicillin, reference compound] | – | – | Amoxicillin MIC, alone ([3]; antibiotic alone): >25.6 µg/mL
CC(C)(O/N=C(\C(=O)N[C@@H]1C(=O)N2C(C(=O)[O-])=C(C[n+]3ccccc3)CS[C@H]12)c1csc(N)n1)C(=O)O [Ceftazidime, reference compound] | – | – | Ceftazidime MIC, alone ([1]; antibiotic alone): >25.6 µg/mL; Ceftazidime MIC, alone ([2]; antibiotic alone): >25.6 µg/mL; Ceftazidime MIC, alone ([3]; antibiotic alone): >25.6 µg/mL
O=CC=C1O[C@@H]2CC(=O)N2C1(C/C=C/c1ccccc1)C(=O)OCc1ccccc1 (stereo partly drawn) [Example 5, (5R)-7-oxo-3-[2-oxo-ethylidene]-2-(3-phenyl-allyl)-4-oxa-1-aza-bicyclo[3.2.0]heptane-2-carboxylic acid benzyl ester] | 4920 | 7140 | –
COC(=O)C1(C/C=C/c2ccccc2)C(=CC(=O)O)O[C@@H]2CC(=O)N21 (single isomer, unassigned) [Example 35] | 1560 | 2310 | –
C=CCC(C(=O)O)=C1O[C@@H]2CC(=O)N2C1C(=O)OCc1ccccc1 (stereo partly drawn) [Example 24, (5R)-3-(1-Carboxy-but-3-enylidene)-7-oxo-4-oxa-1-aza-bicyclo[3.2.0]heptane-2-carboxylic acid benzyl ester] | 30.6 | 62.2 | –
COC(=O)C(CCCc1ccccc1)=C1O[C@@H]2CC(=O)N2C1C(=O)OC (stereo partly drawn) [Example 57, (5R)-3-(1-Methoxycarbonyl-4-phenyl-butylidene)-7-oxo-4-oxa-1-aza-bicyclo[3.2.0]heptane-2-carboxylic acid methyl ester] | 10.6 | 22.6 | –
[N-]=[N+]=NCC1C/C(=C2\O[C@@H]3CC(=O)N3C2C(=O)OCc2ccccc2)C(=O)O1 (stereo partly drawn) [Example 48, (5R)-3-(5-Azidomethyl-2-oxo-dihydro-furan-3-ylidene)-7-oxo-4-oxa-1-aza-bicyclo[3.2.0]heptane-2-carboxylic acid benzyl ester] | 2.4 | 4.2 | –
C=CCC(C=O)=C1O[C@@H]2CC(=O)N2C1C(=O)OC (stereo partly drawn) [Example 16, (5R)-3-[1-Formyl-but-3-enylidene]-7-oxo-4-oxa-1-aza-bicyclo[3.2.0]heptane-2-carboxylic acid methyl ester] | 65.2 | 80.5 | –
O=C(O)C(CC=CCN(Cc1ccccc1)C(=O)OCc1ccccc1)=C1O[C@@H]2CC(=O)N2C1C(=O)OCc1ccccc1 (stereo partly drawn) [Example 58, (5R)-3-[5-(Benzyl-benzyloxycarbonyl-amino)-1-carboxy-pent-3-enylidene]-7-oxo-4-oxa-1-aza-bicyclo[3.2.0]heptane-2-carboxylic acid benzyl ester] | 1.4 | 0.6 | –
COC(=O)C1(C/C=C/c2ccccc2)C(=CC=O)O[C@@H]2CC(=O)N21 (single isomer, unassigned) [Example 14] | 19600 | 85100 | –
C=CCC1(C(=O)OC)C(=CC=O)O[C@@H]2CC(=O)N21 (stereo partly drawn) [Example 17, (5R)-2-Allyl-7-oxo-3-[2-oxo-ethylidene]-4-oxa-1-aza-bicyclo[3.2.0]heptane-2-carboxylic acid methyl ester] | 13300 | 21300 | –
O=C(O)C=C1O[C@@H]2CC(=O)N2C1(C/C=C/c1ccccc1)C(=O)OCc1ccccc1 (single isomer, unassigned) [Example 27] | 426 | 624 | –
O=C(O)C=C1O[C@@H]2CC(=O)N2C1(C/C=C/c1ccccc1)C(=O)OCc1ccccc1 (single isomer, unassigned) [Example 28] | 45700 | 9320 | –
O=CC=C1O[C@@H]2CC(=O)N2C1(C/C=C/c1ccccc1)C(=O)OCc1ccccc1 (single isomer, unassigned) [Example 6] | 2790 | 3950 | –
COC(=O)C1(C/C=C/c2ccccc2)C(=CC=O)O[C@@H]2CC(=O)N21 (single isomer, unassigned) [Example 15] | 4270 | 4430 | –
CC(C)(C)C(=O)OCOC(=O)C1C(=C(C=O)C/C=C/c2ccccc2)O[C@@H]2CC(=O)N12 (stereo partly drawn) [Example 18, (5R)-3-[1-Formyl-4-phenyl-but-3-enylidene]-7-oxo-4-oxa-1-aza-bicyclo[3.2.0]heptane-2-carboxylic acid 2,2-dimethyl-propionyloxymethyl ester] | 27.1 | 13.9 | –
O=CC(CC=CCO)=C1O[C@@H]2CC(=O)N2C1C(=O)OCc1ccccc1 (stereo partly drawn) [Example 7, (5R)-3-[1-Formyl-5-hydroxy-pent-3-enylidene]-7-oxo-4-oxa-1-aza-bicyclo[3.2.0]heptane-2-carboxylic acid benzyl ester] | 78.4 | – | IC50 ([7]; IC50, SHV-1): 217 nM
C=CC/C(CO)=C1\O[C@@H]2CC(=O)N2C1C(=O)OCc1ccccc1 (stereo partly drawn) [Example 38, (5R)-3-[1-Hydroxymethyl-but-3-en-(E)-ylidene]-7-oxo-4-oxa-1-aza-bicyclo[3.2.0]heptane-2-carboxylic acid benzyl ester] | 8020 | 6810 | –
COC(=O)C1C(=C(C/C=C/c2ccccc2)C(=O)O)O[C@@H]2CC(=O)N12 (stereo partly drawn) [Example 34, (5R)-3-(1-Carboxy-4-phenyl-but-3-enylidene)-7-oxo-4-oxa-1-aza-bicyclo[3.2.0]heptane-2-carboxylic acid methyl ester] | 21.7 | 50.3 | –
CO/N=C(\C(=O)N[C@@H]1C(=O)N2C(C(=O)[O-])=C(C[N+]3(C)CCCC3)CS[C@H]12)c1csc(N)n1 [Cefepime, reference compound] | – | – | Cefepime MIC, alone ([1]; antibiotic alone): 0.8 µg/mL; Cefepime MIC, alone ([3]; antibiotic alone): 0.8 µg/mL
